# Laboratory results reported in patent US5786349A, “Method for treating chlamydia infectious diseases by rifamycin derivative” (Kaneka Corporation, priority 1995, dated 1998).
# Several values for one entry are separate records, joined by “and”; a condition that tells them apart may be missing. Equal values may be shown once.
# What was measured:
# [1] = test system: Chlamydia pneumoniae AR-39; assay: In vitro test 3: inhibition of inclusion formation in HeLa 229 cells, about 5 times the inoculum of test 2, C. pneumoniae AR-39; details: AR39, 72 h, read-out: Minimum inhibitory concentration AR-39
# [2] = test system: Chlamydia pneumoniae TW-183; assay: In vitro test 3: inhibition of inclusion formation in HeLa 229 cells, about 5 times the inoculum of test 2, C. pneumoniae TW-183; details: TW183, 72 h, read-out: Minimum inhibitory concentration TW-183
# [3] = test system: Chlamydia pneumoniae AR-39; assay: Infection-therapy test: mouse pneumonia model; details: 1 mg/kg/day i.p. for 3 days
# [4] = test system: Chlamydia trachomatis D/UW-3/Cx; assay: In vitro test 1: inhibition of inclusion formation in HeLa 229 cells (Japan Society of Chemotherapy standard method), C. trachomatis D/UW-3/Cx; details: rifampicin vs compound 4
# [5] = test system: Chlamydia trachomatis F/UW-6/Cx; assay: In vitro test 1: inhibition of inclusion formation in HeLa 229 cells (Japan Society of Chemotherapy standard method), C. trachomatis F/UW-6/Cx; details: rifampicin vs compound 4
Compound,MIC [1],MIC [2],also measured
COC1C=COC2(C)Oc3c(C)c(O)c4c(=O)c(c5oc6cc(N7CCN(CC(C)C)CC7)cc(O)c6nc-5c4c3C2=O)NC(=O)C(C)=CC=CC(C)C(O)C(C)C(O)C(C)C(OC(C)=O)C1C (centres unmarked) [Compound 4],1.25 ng/mL,1.25 ng/mL,"Mice from which Chlamydia was reisolated from the lung/tested mice ([3]; 2 days after infection): 3/3; Mice from which Chlamydia was reisolated from the lung/tested mice ([3]; 7 days after infection (3 days after completion of treatment), 1 mg/kg/day): only one mouse in a group of 5 mice and 1/5; Mice from which Chlamydia was reisolated from the lung/tested mice ([3]; 9 days after infection (5 days after completion of treatment)): 0/5; Mice from which Chlamydia was reisolated from the lung/tested mice ([3]; 14 days after infection (10 days after completion of treatment)): 0/5; Mice from which Chlamydia was reisolated from the lung/tested mice ([3]; 19 days after infection (15 days after completion of treatment)): 0/5; reisolation of organisms ([3]; after the 5th day from completion of treatment): no reisolation of organisms was observed; death of mice ([3]; treatment group): no death of the treatment group of mice was observed"
CCCN1CCN(c2cc(O)c3nc4c5c6c7c(C)c(O)c5c(=O)c(c-4oc3c2)NC(=O)C(C)=CC=CC(C)C(O)C(C)C(O)C(C)C(OC(C)=O)C(C)C(OC)C=COC(C)(O7)C6=O)CC1 (centres unmarked) [Compound 3],1.25 ng/mL,5 ng/mL,–
COC1C=COC2(C)Oc3c(C)c(O)c4c(=O)c(c5oc6cc(N7CCN(CC(C)C)CC7)cc(O)c6nc-5c4c3C2=O)NC(=O)C(C)=CC=CC(C)C(O)C(C)C(O)C(C)C(O)C1C (centres unmarked) [Compound 5],2.5 ng/mL,1.25 ng/mL,–
CO[C@H]1/C=C/O[C@@]2(C)Oc3c(C)c(O)c4c(O)c(c(/C=N/N5CCN(C)CC5)c(O)c4c3C2=O)NC(=O)/C(C)=C\C=C\[C@H](C)[C@H](O)[C@@H](C)[C@@H](O)[C@@H](C)[C@H](OC(C)=O)[C@@H]1C [rifampicin],–,–,MIC as multiple of the concentration for the compound 4 [4]: about 30 times; MIC as multiple of the concentration for the compound 4 [5]: about 30 times
"CC[C@H]1OC(=O)[C@H](C)[C@@H](O[C@H]2C[C@@](C)(OC)[C@@H](O)[C@H](C)O2)[C@H](C)[C@@H](O[C@@H]2O[C@H](C)C[C@H](N(C)C)[C@H]2O)[C@](C)(O)C[C@@H](C)CN(C)[C@H](C)[C@@H](O)[C@]1(C)O [Azithromycin, reference compound]",500 ng/mL,250 ng/mL,–

# Continued by falling MIC [1], values first:
MIC [1],MIC [2],Compound,also measured
1.25 ng/mL,0.63 ng/mL,COC1C=COC2(C)Oc3c(C)c(O)c4c(=O)c(c5oc6cc(N7CCOCC7)cc(O)c6nc-5c4c3C2=O)NC(=O)C(C)=CC=CC(C)C(O)C(C)C(O)C(C)C(OC(C)=O)C1C (centres unmarked) [Compound 1],–
0.63 ng/mL,2.5 ng/mL,COC1C=COC2(C)Oc3c(C)c(O)c4c(=O)c(c5oc6cc(N7CCN(CC8OCCO8)CC7)cc(O)c6nc-5c4c3C2=O)NC(=O)C(C)=CC=CC(C)C(O)C(C)C(O)C(C)C(OC(C)=O)C1C (centres unmarked),–
0.16 ng/mL,0.63 ng/mL,COC1C=COC2(C)Oc3c(C)c(O)c4c(=O)c(c5oc6cc(N7CCN(C)CC7)cc(O)c6nc-5c4c3C2=O)NC(=O)C(C)=CC=CC(C)C(O)C(C)C(O)C(C)C(OC(C)=O)C1C (centres unmarked) [Compound 2],–
